Results: US12338221B2, “Process for preparation of sulfentrazone with tank-mix compatibility” (UPL LTD, priority 2021, dated 2025)

Experiment: Tank mix compatibility test with other pesticide active compound
Format: physicochemical
Conditions: FIG. 2 and FIG. 3
Description: Samples prepared according to Example 6 and Example 7 were tested for compatibility with clomazone EC formulation (UPSTAGE®). The tank mix compatibility was checked as per the dosages mentioned below: [table] Method: Total 250 ml of spray dilution solution was prepared using above mentioned composition wherein 7 ml of each sample 1 and sample 2 were mixed with 10 ml of UPSTAGE® and mixture was diluted with water.

Row | SMILES | Physical incompatibilities when mixed with a clomazone EC formulation
1 | Cc1nn(-c2cc(NS(C)(=O)=O)c(Cl)cc2Cl)c(=O)n1C(F)F [sulfentrazone prepared in accordance with the present disclo] [N[2,4-dichloro-5-[4-(difluoromethyl)-4,5-dihydro-3-methyl-5-oxo-1H-1,2,4-triazol-1-yl]phenyl]methanesulfonamide] | did not result in any physical incompatibilities
2 | Cc1nn(-c2cc(NS(C)(=O)=O)c(Cl)cc2Cl)c(=O)n1C(F)F [conventionally prepared sulfentrazone, N[2,4-dichloro-5-[4-(difluoromethyl)-4,5-dihydro-3-methyl-5-oxo-1H-1,2,4-triazol-1-yl]phenyl]methanesulfonamide] | moderate to severe physical incompatibilities
